According to patent US5917034A, “Antithrombotic n-amidinopiperidine and benzamidine derivatives” (Pfizer Inc., priority 1995, dated 1999):
Counter-ions that a name gives are not always drawn.

Legend:
[1] = biological target: T1, bovine pancreatic trypsin (Bos taurus, UniProt P00760); assay: Chromogenic assay, inhibition of trypsin; format: biochemical; conditions: in vitro, substrate S2222, pH 8.0, 30° C.
T1 construct: from tissue; host or cells: bovine pancreas
T1 sequence (P00760 24-246): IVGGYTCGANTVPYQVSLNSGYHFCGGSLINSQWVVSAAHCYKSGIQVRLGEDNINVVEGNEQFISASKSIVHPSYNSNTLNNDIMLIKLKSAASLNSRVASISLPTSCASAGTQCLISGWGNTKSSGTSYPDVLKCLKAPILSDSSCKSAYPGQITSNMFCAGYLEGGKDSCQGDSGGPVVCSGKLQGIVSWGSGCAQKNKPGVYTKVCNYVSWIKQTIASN
Protocol: (§1) The inhibition of thrombin, trypsin, plasmin or factor Xa is measured in 96 well plate chromogenic assays. The percentage inhibition and IC50 are calculated from triplicate samples of an 8 concentration dose-response curve. From the substrate Km and IC50, the Ki for each inhibitor is calculated. All assays are carried out in a total incubation of 200 μl of 50 mM HEPES and 150 mM NaCl at pH 8.0, and all compound dilutions are preincubated with enzyme at room temperature for 15 minutes prior to addition of substrate. After 30 minutes incubation at 30° C., the O.D. is measured at […] in a 96 well plate reader. Thrombin activity is measured using bovine thrombin and S2238 (H-D-Phe-Pip-Arg-pNA), bovine pancreatic trypsin is assayed with S2222 (Benz-Isoleu-Glu-Gly-Arg-pNA), bovine plasma plasmin is assayed with Chromozym PL (Tosyl-Giy-Pro-Lys-pNA)and bovine factor Xa is assayed in 50 mM Tris, 150 mM NaCl, pH 7.5 buffer with S2222.
The following Table illustrates the in vitro inhibitory activities against thrombin and trypsin for a range of the compounds of the invention.

[2] = biological target: bovine thrombin (Bos taurus, UniProt P00735); assay: Chromogenic assay, inhibition of thrombin; format: biochemical
Protocol: as §1

Structure (SMILES) | Ki [1] | Ki [2]
N=C(N)N1CCC(OCCC2CCCCN2C(=O)[C@H](CC(=O)O)NC2CCCCCCC2)CC1 (mixture of isomers) [Example 16, N-(N-Cyclooctyl-(S)-α-aspartyl)-2(R,S)-[2-(N-amidino-4-piperidyloxy)ethyl]piperidine dihydrochloride] | 0.72 µM | –
N=C(N)N1CCC(OCCC2CCCCN2C(=O)[C@H](CC(=O)O)NC2CCCCC2O)CC1 (mixture of isomers) [Example 17, N-[N-(2-Hydroxycyclohexyl)-(S)-α-aspartyl]-2(R,S)-[2-(N-amidino-4-Piperidyloxy)ethyl]piperidine bis-trifluoroacetate] | 11 µM | 0.035 µM
CCN(C1CCCCC1)[C@@H](CC(=O)O)C(=O)N1CCCCC1CCOC1CCN(C(=N)N)CC1 (mixture of isomers) [Example 29, N-(N-Cyclohexyl-N-ethyl-(S)-α-aspartyl)-2(R,S)-[2-(N-amidino-4-piperidyloxy)ethyl]piperidine dihydrochloride] | 5 µM | 0.016 µM
N=C(N)c1ccc(OCCC2CCCCN2C(=O)[C@H](CC(=O)O)NC2CCCCC2)cc1 (mixture of isomers) [Example 31, N-(N-Cyclohexyl-(S)-α-aspartyl)-2(R,S)-[2-(4-amidinophenoxy)ethyl]piperidine dihydrochloride] | 1.3 µM | 0.045 µM
N=C(N)N1CCC(OCC[C@@H]2CCCCN2C(=O)[C@H](CC(=O)O)NC2CC3CCC2C3)CC1 (stereo partly drawn) [Example 3, N-[N-(2-Norbornyl)-(S)α-aspartyl]-2(S)-[2-(N-amidino-4-piperidyloxy)ethyl]piperidine dihydrochloride] | 1.2 µM | 0.0041 µM
CN(C1CCCC(C)(C)C1)[C@@H](CC(=O)O)C(=O)N1CCCC[C@H]1CCOC1CCN(C(=N)N)CC1 (stereo partly drawn) [Example 25, N-[N-Methyl-N-(3,3-dimethylcyclohexyl)-(S)-α-aspartyl]-2(S)-[2-(N-amidino-4-piperidyloxy)ethyl]piperidine dihydrochloride] | 0.36 µM | 0.002 µM
